Here are results for twelve compounds from ChEMBL document CHEMBL1201862, “PubChem BioAssay data set” (2004).

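Cells were grown in 96-well plates and exposed to each compound for 48 hours at five concentrations; endpoints were interpolated linearly between bracketing concentrations, or set to the highest concentration if not reached. Abbreviation: GI50, concentration required for 50% inhibition of growth.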 Calls of active or inactive are those of the source. Rule as the data show it: active = GI50 up to about 1.1 µM and inactive = higher. A value given as a limit tells only on which side of the number the result lay.

Among the test systems are DLD-1; HCT-15; HL-60; HOP-18; HOP-92; LOX IMVI; M19-MEL; MOLT-4; OVCAR-5; RPMI-8226; SK-MEL-5; SK-OV-3; SNB-19; SNB-75; SR; TK-10; OVCAR-4; DU-145; Hs-578T; PC-3.
Holding throughout (experiment): NCI anticancer screen, dose series, 48 h

As to `Cc1nc2c(o1)/C(=N\c1ccccc1)c1nc(C)oc1/C2=N/c1ccccc1`, the GI50 in the assay with DLD-1 is 25.5 µM (inactive); in the assay on HCT-15, 23.4 µM; in the assay with HL-60, 49.9 µM (inactive); in the assay with HOP-18, 17.3 µM (inactive); in the assay with HOP-92, 24 µM (inactive); in the assay on LOX IMVI, 28.2 µM (inactive). The GI50 is 21.6 µM (inactive) in the assay on M19-MEL; 27.5 µM (inactive) with MOLT-4; 34 µM (inactive) in the assay on OVCAR-5; 29.6 µM (inactive) in the assay on RPMI-8226; 1.06 µM (active) in the assay with SK-MEL-5; 20.2 µM (inactive) with SK-OV-3. The GI50 was 21.2 µM (inactive) in the assay with SNB-19, 11.7 µM (inactive) in the assay on SNB-75, 60.5 µM (inactive) with SR and 32.7 µM (inactive) in the assay on TK-10.
Take `CC12C/C(=C\c3ccccc3)C(=O)C3C1CCCC32`: the GI50 in the assay on DLD-1 was 79.3 µM (inactive); in the assay with HCT-15, above 100 µM; in the assay with HL-60, 21.5 µM (inactive); in the assay on HOP-18 it was > 100 µM (inactive); with HOP-92, > 100 µM (inactive); in the assay on LOX IMVI, 72.8 µM (inactive). In addition, the GI50 in the assay on M19-MEL was 58.6 µM (inactive); in the assay with MOLT-4, 21.5 µM (inactive); with OVCAR-4, 66.4 µM (inactive); with OVCAR-5, > 100 µM (inactive); with RPMI-8226 it was 34.2 µM (inactive); with SK-MEL-5, 46 µM (inactive). Moreover, the GI50 with SK-OV-3 is > 100 µM (inactive); in the assay on SNB-19, > 100 µM (inactive); with SNB-75, 92.9 µM (inactive); in the assay on SR it was 36.8 µM (inactive); with TK-10, > 100 µM (inactive).
Take `Cn1c(=O)c2ccc(-c3ccc(Br)cc3)nc2n(C)c1=O`: the GI50 in the assay on DLD-1 is > 100 µM (inactive); with HCT-15, above 100 µM; in the assay with HL-60, > 100 µM (inactive); in the assay on HOP-18 it was > 100 µM (inactive); in the assay with HOP-92 it was > 100 µM (inactive); in the assay with LOX IMVI it was > 100 µM (inactive). For the same compound, the GI50 in the assay with M19-MEL, in the assay on MOLT-4, in the assay with OVCAR-4, in the assay with OVCAR-5, in the assay with RPMI-8226 and with SK-MEL-5 was > 100 µM (inactive) throughout. Moreover, the GI50 in the assay with SK-OV-3 is > 100 µM (inactive); in the assay on SNB-19, > 100 µM (inactive); in the assay with SNB-75 it was 29.6 µM (inactive); in the assay on SR it was > 100 µM (inactive); with TK-10, 49.5 µM (inactive).
For `CC(=O)CC(=O)Nc1ccccc1[N+](=O)[O-]`, the GI50 is > 100 µM (inactive) in the assay on DLD-1; above 100 µM in the assay on HCT-15; > 100 µM (inactive) in the assay with HL-60; > 100 µM (inactive) in the assay with HOP-18; > 100 µM (inactive) in the assay with HOP-92; > 100 µM (inactive) in the assay on M19-MEL. In addition, the GI50 in the assay with MOLT-4, in the assay with OVCAR-4, in the assay with OVCAR-5, in the assay on RPMI-8226, in the assay with SK-MEL-5 and in the assay with SK-OV-3 was > 100 µM (inactive) throughout. Also, the GI50 in the assay on SNB-19, in the assay on SNB-75, in the assay with SR and in the assay with TK-10 was > 100 µM (inactive) throughout.
Regarding `C/C(=N\NC(=S)N1CCN(c2ccccn2)CC1)c1ncccn1`, the GI50 was 0.00272 µM (active) with DLD-1; 2.51 µM (inactive) with DU-145; 0.02 µM with HCT-15; 0.00752 µM (active) with HL-60; 1.64 µM (inactive) in the assay on HOP-18; 1.63 µM (inactive) in the assay on HOP-92. The GI50 was 1.87 µM (inactive) in the assay with Hs-578T; 0.0986 µM (active) with LOX IMVI; 0.638 µM (active) in the assay with M19-MEL; 0.0116 µM (active) in the assay on MOLT-4; 0.205 µM (active) with OVCAR-4; 0.0303 µM (active) in the assay with OVCAR-5. The GI50 with PC-3 is 4.37 µM (inactive); in the assay on RPMI-8226, 0.0131 µM (active); in the assay on SK-MEL-5 it was 0.109 µM (active); with SK-OV-3, 0.284 µM (active); in the assay with SNB-19 it was 2.56 µM (inactive); with SNB-75 it was 3.43 µM (inactive). Further, the GI50 in the assay on SR was 0.0863 µM (active); in the assay on TK-10, 2.67 µM (inactive).
As to `CS(=O)(=O)c1nc(N)nc2nc[nH]c12`, the GI50 with DLD-1 is > 100 µM (inactive); with HCT-15, above 100 µM; in the assay on HL-60, > 100 µM (inactive); in the assay with HOP-18, > 100 µM (inactive); in the assay with HOP-92, > 100 µM (inactive); in the assay with LOX IMVI it was > 100 µM (inactive). For the same compound, the GI50 in the assay on M19-MEL, in the assay on MOLT-4, in the assay on OVCAR-4, in the assay with OVCAR-5, in the assay with RPMI-8226 and with SK-MEL-5 was > 100 µM (inactive) each time. In addition, the GI50 in the assay on SK-OV-3, in the assay on SNB-19, with SR and in the assay on TK-10 was > 100 µM (inactive) in each case.
Regarding `CC(=O)O[C@H]1CCC2[C@@H]3CC[C@]4(C)CC(=O)C=C[C@]4(C)C3CC[C@@]21C` (some centres not stated), the GI50 with DLD-1 was 22.6 µM (inactive); in the assay on DU-145, > 100 µM (inactive); in the assay on HCT-15 it was 18.7 µM; with HL-60, 20.4 µM (inactive); in the assay on HOP-18, > 38.8 µM (inactive); in the assay on HOP-92, 48.2 µM (inactive). Besides, the GI50 was 16.9 µM (inactive) with LOX IMVI; 18.8 µM (inactive) in the assay on M19-MEL; 23.2 µM (inactive) in the assay on MOLT-4; 16.9 µM (inactive) with OVCAR-4; > 80.5 µM (inactive) in the assay with OVCAR-5; 29.4 µM (inactive) in the assay with PC-3. In addition, the GI50 in the assay on RPMI-8226 was 23 µM (inactive); in the assay on SK-MEL-5, 14.8 µM (inactive); in the assay with SK-OV-3 it was 65.8 µM (inactive); in the assay on SNB-19, 51.3 µM (inactive); in the assay with SNB-75, 46 µM (inactive); in the assay on TK-10 it was 54.7 µM (inactive).
For the compound `COc1ccc(/N=C(/[N-]n2c(=O)c(C)nn(C)c2=S)N(c2ccc(OC)cc2)c2n[n+]3c(=O)c(C)nn(C)c3s2)cc1`, the GI50 in the assay with DLD-1 was > 100 µM (inactive); with HCT-15, above 100 µM; with HL-60, > 100 µM (inactive); in the assay on HOP-18, > 100 µM (inactive); with HOP-92 it was > 100 µM (inactive); with LOX IMVI, > 100 µM (inactive). Besides, the GI50 with M19-MEL, in the assay with MOLT-4, in the assay on OVCAR-4, in the assay on OVCAR-5, with RPMI-8226 and with SK-MEL-5 was > 100 µM (inactive) in each case. Also, the GI50 in the assay with SNB-19, in the assay with SNB-75 and in the assay with SR was > 100 µM (inactive) in each case.
Turning to `[N-]=[N+]=NC(CCl)c1cn([C@H]2C[C@H](O)[C@@H](CO)O2)c(=O)[nH]c1=O` (some centres not stated), the GI50 in the assay on DLD-1 is > 100 µM (inactive); in the assay on HCT-15, above 100 µM; in the assay with HL-60 it was > 100 µM (inactive); with HOP-18, > 100 µM (inactive); in the assay on HOP-92, > 100 µM (inactive); in the assay with LOX IMVI it was > 100 µM (inactive). The GI50 with M19-MEL, in the assay on MOLT-4, in the assay on OVCAR-5, with RPMI-8226, with SK-MEL-5 and in the assay on SK-OV-3 was > 100 µM (inactive) each time. In addition, the GI50 with SNB-19, in the assay with SNB-75, with SR and in the assay with TK-10 was > 100 µM (inactive) each time.
As for `CO[C@]12CCC(=O)N1C=Cc1c2[nH]c2ccccc12`, the GI50 in the assay with DLD-1 is > 100 µM (inactive); in the assay on HCT-15, above 100 µM; in the assay on HL-60, > 100 µM (inactive); with HOP-18, > 100 µM (inactive); with HOP-92, > 100 µM (inactive); in the assay on LOX IMVI it was > 100 µM (inactive). In addition, the GI50 with M19-MEL, in the assay on MOLT-4, with OVCAR-4, in the assay on OVCAR-5, with RPMI-8226 and in the assay with SK-MEL-5 was > 100 µM (inactive) throughout. In addition, the GI50 in the assay with SNB-19, in the assay with SNB-75, in the assay with SR and with TK-10 was > 100 µM (inactive) each time.
In the case of `CCN(CC)CCOc1ccc(/C=C(\C#N)c2ccc(OCCN(CC)CC)cc2)cc1`, the GI50 in the assay on DLD-1 was 19.5 µM (inactive); with DU-145, 65.6 µM (inactive); with HCT-15, 14.5 µM; in the assay with HL-60, 4.84 µM (inactive); in the assay with HOP-18, 25.6 µM (inactive); in the assay with HOP-92, 16.9 µM (inactive). Also, the GI50 was 12.6 µM (inactive) in the assay with LOX IMVI; 14.8 µM (inactive) in the assay on M19-MEL; 9.12 µM (inactive) in the assay with MOLT-4; 37.3 µM (inactive) in the assay on OVCAR-4; 11.6 µM (inactive) with OVCAR-5; 13 µM (inactive) in the assay on RPMI-8226. In addition, the GI50 was 4.48 µM (inactive) in the assay with SK-MEL-5; 28.2 µM (inactive) in the assay on SK-OV-3; 36.4 µM (inactive) with SNB-19; 16 µM (inactive) in the assay with SNB-75; 7.89 µM (inactive) in the assay on SR; > 59.7 µM (inactive) in the assay with TK-10.
On to `CCCCCCCCCCCCCCCCOP(=O)(O)Oc1ccc(/C=C\c2ccc(OP(=O)(O)OCCCCCCCCCCCCCCCC)cc2)cc1`, for which the GI50 in the assay on DLD-1 is > 100 µM (inactive); in the assay with HCT-15 it was above 100 µM; with HL-60, 26 µM (inactive); in the assay on HOP-18, 70.3 µM (inactive); in the assay on HOP-92, 5.02 µM (inactive); with LOX IMVI, > 100 µM (inactive). Further, the GI50 with M19-MEL is 38.7 µM (inactive); in the assay with MOLT-4 it was 59 µM (inactive); in the assay on OVCAR-4, 62.5 µM (inactive); in the assay on OVCAR-5, > 100 µM (inactive); in the assay on RPMI-8226, 19.3 µM (inactive); with SK-MEL-5 it was > 100 µM (inactive). The GI50 in the assay with SK-OV-3 was > 100 µM (inactive); with SNB-19, 64.1 µM (inactive); in the assay with SNB-75, 12 µM (inactive); in the assay with SR, 30 µM (inactive); in the assay on TK-10 it was 25.1 µM (inactive).
